Molecular target: T1, TYK2-JH2 (aa 575-869, in-house) protein (Homo sapiens, UniProt P29597)
T1 construct: TYK2-JH2 (aa 575-869, in-house) protein; made in house
Experiment: TYK2-JH2 biochemical assay (HTRF probe displacement)
Type: binding
Settings: Biochemical assay; read-out: TYK2-JH2 IC50
Experimental: Assay A: TYK2-JH2 Biochemical Assay
Compounds disclosed herein were tested for blocking of TYK2-JH2 (aa 575-869, in-house) protein with its probe in an assay based on Homogeneous Time Resolved Fluorescence. Compound dilution is done according to the following protocol: (1) Prepare 500× compounds solution in DMSO from 500 uM by 5-fold dilution, total 10 doses were included; (2) Prepare 10× compounds solution in an assay buffer containing 20 mM HEPES, pH 7.5, 10 mM MgCl2, 0.005% BSA, 2 mM DTT, 0.015% Brij-35 by transferring 1 μl serial 500× stock solution into 49 μl assay buffer. […] of 0.2 nM recombinant TYK2-JH2 protein was pre-incubated with 1 μl of 10× serial dilution of compounds at room temperature for 0.5 hour. […] The HTRF signals (ex337 nm, em620 nm/665 nm) were read on BMG PHERAstar FS instrument. The inhibition percentage of TYK2 interaction with its probe in presence of increasing concentrations of compounds was calculated based on the ratio of fluorescence at 615 nm to that at 665 nm. The IC50 for each compound was derived from fitting the data to the four-parameter logistic equation by Dotmatics.

T1 sequence (P29597 575-869): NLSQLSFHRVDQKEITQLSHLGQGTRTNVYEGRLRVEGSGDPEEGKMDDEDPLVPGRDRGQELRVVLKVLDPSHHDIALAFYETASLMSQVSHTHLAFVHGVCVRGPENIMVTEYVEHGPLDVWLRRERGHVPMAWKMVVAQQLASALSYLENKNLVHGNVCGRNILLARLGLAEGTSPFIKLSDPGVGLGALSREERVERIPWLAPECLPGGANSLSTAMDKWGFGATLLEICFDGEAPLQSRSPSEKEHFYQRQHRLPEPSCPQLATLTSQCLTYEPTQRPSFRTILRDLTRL

Structure (SMILES) | IC50
CC(=O)Nc1cc(Nc2cccc(S(C)(=O)=O)n2)c(-c2cccnc2)cn1 [Example B2, N-(4-((6-(methylsulfonyl)pyridin-2-yl)amino)-[3,3′-bipyridin]-6-yl)acetamide] | 5800 pM
CC(=O)Nc1cc(Nc2cc(C(F)(F)F)cc(S(C)(=O)=O)c2)c(-c2ccc(F)cn2)cn1 [Example F13, N-(5-fluoro-4′-((3-(methylsulfonyl)-5-(trifluoromethyl)phenyl)amino)-[2,3′-bipyridin]-6′-yl)acetamide] | 210 pM
CCn1ccc(-c2cnc(NC(C)=O)cc2Nc2cc(C(F)(F)F)cc(S(C)(=O)=O)c2)n1 [Example M13, N-(5-(1-ethyl-1H-pyrazol-3-yl)-4-((3-(methylsulfonyl)-5-(trifluoromethyl)phenyl)amino)pyridin-2-yl)acetamide] | 110 pM
CC(=O)Nc1cc(Nc2cc(OCCO)cc(S(C)(=O)=O)c2)c(-c2ccc(C(F)(F)F)cn2)cn1 [Example F7, N-(4′-((3-(2-hydroxyethoxy)-5-(methylsulfonyl)phenyl)amino)-5-(trifluoromethyl)-[2,3′-bipyridin]-6′-yl)acetamide] | 85 pM
CC(=O)Nc1cc(Nc2cc(C#N)cc(S(C)(=O)=O)c2)c(-c2ccc(C(F)(F)F)cn2)cn1 [Example F4, N-(4′-((3-cyano-5-(methylsulfonyl)phenyl)amino)-5-(trifluoromethyl)-[2,3′-bipyridin]-6′-yl)acetamide] | 324 pM
CC(=O)Nc1cc(Nc2cc(C(F)(F)F)cc(S(C)(=O)=O)c2)c(-c2ccn([C@@H]3CCOC3)n2)cn1 [Example M32, (R)-N-(4-((3-(methylsulfonyl)-5-(trifluoromethyl)phenyl)amino)-5-(1-(tetrahydrofuran-3-yl)-1H-pyrazol-3-yl)pyridin-2-yl)acetamide] | 74 pM
COC(C)c1cc(Nc2cc(NC(C)=O)ncc2-c2ccc(N3C[C@@H](C)O[C@@H](C)C3)cn2)nc(S(C)(=O)=O)c1 (single isomer, unassigned) [Example C20, N-(5-((cis)-2,6-dimethylmorpholino)-4′-((4-((R or S)-1-methoxyethyl)-6-(methylsulfonyl)pyridin-2-yl)amino)-[2,3′-bipyridin]-6′-yl)acetamide] | 23 pM
CC(=O)Nc1cc(Nc2cc(C(F)(F)F)cc(S(C)(=O)=O)c2)c(-c2ccn(C)n2)cn1 [Example J33, N-(5-(1-methyl-1H-pyrazol-3-yl)-4-((3-(methylsulfonyl)-5-(trifluoromethyl)phenyl)amino)pyridin-2-yl)acetamide] | 120 pM
CC(=O)Nc1cc(Nc2cc(C)cc(S(C)(=O)=O)c2)c(-c2ccc(C(F)(F)F)cn2)cn1 [Example F3, N-(4′-((3-methyl-5-(methylsulfonyl)phenyl)amino)-5-(trifluoromethyl)-[2,3′-bipyridin]-6′-yl)acetamide] | 68 pM
COCCOc1cc(Nc2cc(NC(C)=O)ncc2-c2ccc(F)cn2)nc(S(C)(=O)=O)c1 [Example F16, N-(5-fluoro-4′-((4-(2-methoxyethoxy)-6-(methylsulfonyl)pyridin-2-yl)amino)-[2,3′-bipyridin]-6′-yl)acetamide] | 27 pM
CC(=O)Nc1cc(Nc2cccc(S(C)(=O)=O)c2)c(-c2cc(C(C)(C)O)ccn2)cn1 [Example B9, N-(4-(2-hydroxypropan-2-yl)-4′-((3-(methylsulfonyl)phenyl)amino)-[2,3′-bipyridin]-6′-yl)acetamide] | 530 pM
CC(=O)Nc1cc(Nc2cc(C)cc(S(C)(=O)=O)n2)c(-c2ccn(CC(=O)N3CCOCC3)n2)cn1 [Example A13, N-(4-((4-methyl-6-(methylsulfonyl)pyridin-2-yl)amino)-5-(1-(2-morpholino-2-oxoethyl)-1H-pyrazol-3-yl)pyridin-2-yl)acetamide] | 80 pM
CC(=O)Nc1cc(Nc2cc(OC(C)C)cc(S(C)(=O)=O)n2)c(-n2ccnc2)cn1 [Example A18, N-(5-(1H-imidazol-1-yl)-4-((4-isopropoxy-6-(methylsulfonyl)pyridin-2-yl)amino)pyridin-2-yl)acetamide] | 8150 pM
CC(=O)Nc1cc(Nc2cccc(S(C)(=O)=O)c2)c(-c2ccc(N3CCOCC3)cn2)cn1 [Example B11, N-(4′-((3-(methylsulfonyl)phenyl)amino)-5-morpholino-[2,3′-bipyridin]-6′-yl)acetamide] | 19 pM
COc1cc(Nc2cc(NC(C)=O)ncc2-c2ccc(C(C)(C)O)cn2)cc(S(C)(=O)=O)c1 [Example H4, N-(5-(2-hydroxypropan-2-yl)-4′-((3-methoxy-5-(methylsulfonyl)phenyl)amino)-[2,3′-bipyridin]-6′-yl)acetamide] | 47 pM

Next, values leading:

IC50 | Structure (SMILES)
37 pM | CC(=O)Nc1cc(Nc2cc(C(C)(C)O)cc(S(C)(=O)=O)n2)c(-c2ccc3c(n2)OC(C)(C)CO3)cn1 [Example Q29, N-(5-(3,3-dimethyl-2,3-dihydro-[1,4]dioxino[2,3-b]yridine-6-yl)-4-((4-(2-hydroxypropan-2-yl)-6-(methylsulfonyl)pyridine-2-yl)amino)pyridine-2-yl)acetamide]
59 pM | CC(=O)Nc1cc(Nc2cc(C3CCN(CC(F)(F)F)CC3)cc(S(C)(=O)=O)n2)c(-c2ccc3c(n2)OCC(C)(C)O3)cn1 [Example Q60, N-(5-(2,2-dimethyl-2,3-dihydro-[1,4]dioxino[2,3-b]pyridin-6-yl)-4-((6-(methylsulfonyl)-4-(1-(2,2,2-trifluoroethyl)piperidin-4-yl)pyridin-2-yl)amino)pyridin-2-yl) acetamide]
22 pM | CC(=O)Nc1cc(Nc2cc(N3CC[C@H](OCCO)C3)cc(S(C)(=O)=O)n2)c(-c2ccc3c(n2)OCC(C)(C)O3)cn1 [Example Q61, (S)-N-(5-(2,2-dimethyl-2,3-dihydro-[1,4]dioxino[2,3-b]pyridin-6-yl)-4-((4-(3-(2-hydroxyethoxy)pyrrolidin-1-yl)-6-(methylsulfonyl)pyridin-2-yl)amino)pyridin-2-yl)acetamide]
31 pM | CC(=O)Nc1cc(Nc2cc(N3CCC(C)(O)C3)cc(S(C)(=O)=O)n2)c(-c2ccc3c(n2)OCC(C)(C)O3)cn1 (centres unmarked) [Example Q57, N-(5-(2,2-dimethyl-2,3-dihydro-[1,4]dioxino[2,3-b]pyridin-6-yl)-4-((4-(3-hydroxy-3-methylpyrrolidin-1-yl)-6-(methylsulfonyl)pyridin-2-yl)amino)pyridin-2-yl) acetamide]
33 pM | CC(=O)Nc1cc(Nc2cc(-c3c(C)noc3C)cc(S(C)(=O)=O)n2)c(-c2ccc3c(n2)OCC(C)(C)O3)cn1 [Example Q99, N-(5-(2,2-dimethyl-2,3-dihydro-[1,4]dioxino[2,3-b]pyridin-6-yl)-4-((4-(3,5-dimethylisoxazol-4-yl)-6-(methylsulfonyl)pyridin-2-yl)amino)pyridin-2-yl)acetamide]
19 pM | CC(=O)Nc1cc(Nc2cc(N3CCC(C)(O)CC3)cc(S(C)(=O)=O)n2)c(-c2ccc3c(n2)OCC(C)(C)O3)cn1 [Example Q55, N-(5-(2,2-dimethyl-2,3-dihydro-[1,4]dioxino[2,3-b]pyridin-6-yl)-4-((4-(4-hydroxy-4-methylpiperidin-1-yl)-6-(methylsulfonyl)pyridin-2-yl)amino)pyridin-2-yl)acetamide]
29 pM | CC(=O)Nc1cc(Nc2cc(N3CCCC3)cc(S(C)(=O)=O)n2)c(-c2ccc3c(n2)OCC(C)(C)O3)cn1 [Example Q104, N-(5-(2,2-dimethyl-2,3-dihydro-[1,4]dioxino[2,3-b]pyridin-6-yl)-4-((6-(methylsulfonyl)-4-(pyrrolidin-1-yl)pyridin-2-yl)amino)pyridin-2-yl)acetamide]
31 pM | CC(=O)Nc1cc(Nc2cc(N3CC(C)(O)C3)cc(S(C)(=O)=O)n2)c(-c2ccc3c(n2)OCC(C)(C)O3)cn1 [Example Q56, N-(5-(2,2-dimethyl-2,3-dihydro-[1,4]dioxino[2,3-b]pyridin-6-yl)-4-((4-(3-hydroxy-3-methylazetidin-1-yl)-6-(methylsulfonyl)pyridin-2-yl)amino)pyrid-in-2-yl)acetamide]
32 pM | CC(=O)Nc1cc(Nc2cc(C3(C#N)CC3)cc(S(C)(=O)=O)n2)c(-c2ccc3c(n2)OCC(C)(C)O3)cn1 [Example Q120, N-(4-((4-(1-cyanocyclopropyl)-6-(methylsulfonyl)pyridin-2-yl)amino)-5-(2,2-dimethyl-2,3-dihydro-[1,4]dioxino[2,3-b]pyridin-6-yl)pyridin-2-yl)acetamide]
65 pM | CC(=O)Nc1cc(Nc2cc(C)c(F)c(S(C)(=O)=O)n2)c(-c2ccc3c(n2)OC(C)(C)CO3)cn1 [Example Q30, N-(5-(3,3-dimethyl-2,3-dihydro-[1,4]dioxino[2,3-b]pyridine-6-yl)-4-((5-fluoro-4-methyl-6-(methylsulfonyl)pyridine-2-yl)amino)pyridine-2-yl)acetamide]
320 pM | CC(=O)Nc1cc(Nc2ccc(C3CCOCC3)c(S(C)(=O)=O)n2)c(-c2ccc3c(n2)OCC(C)(C)O3)cn1 [Example Q79, N-(5-(2,2-dimethyl-2,3-dihydro-[1,4]dioxino[2,3-b]pyridin-6-yl)-4-((6-(methylsulfonyl)-5-(tetrahydro-2H-pyran-4-yl)pyridin-2-yl)amino)pyridin-2-yl)acetamide]
